In patent US8962637B2, “Bicyclic compounds and their uses as dual c-SRC/JAK inhibitors” (Debiopharm S.A., priority 2010, dated 2015):

Experiments:
A549 tumor cells = assay: A549 xenograft model; format: in vivo
Procedure: Sub-cutaneous (SC) injection of 5×10^6 A549 tumor cells on the left flank of 48 female athymic nude mice. Randomization of mice 14 days after tumor cell injection into 6 groups of 8 mice each with a mean tumor volume of 134±5 mm3.
Formulation: 20% HPC, 2% ethanol solution in PBS for the compounds No. 45, 117 and 179.
• Normal saline for Erlotinib® Dosing route: Oral for the compounds No. 45, 117 and 179, and Erlotinib® Dose Volume: 10 mL/Kg body weight Dosing schedule: Once daily for 14 consecutive days (Q1Dx14) Dosage: • Group1. Vehicle control • Group2. Erlotinib®-100 MPK • Group3. Compound No. 45—10 MPK • Group4. Compound No. 45—30 MPK • Group5. Compound No. 45—100 MPK • Group6. Compound No. 117—30 MPK • Group7. Compound No. 117—100 MPK • Group8. Compound No. 179—10 MPK • Group9. […] Plasma collected for drug concentration estimation and whole blood was collected to isolate PBMCs (peripheral blood monocytes) to determine pStat3 inhibition by flow cytometry as PD readout. Tumors were snap frozen in liquid nitrogen and stored at −80° C. to estimate pStat3 by flow cytometry as PD readout EXPT. 2
SC injection of 5×10^6 A549 tumor cells on the left flank of 24 female athymic nude mice. Randomization of mice 14 days after tumor cell injection into 3 groups of 8 mice each with a mean tumor volume of 75±7 mm3.
(§1) Formulation: 20% HPC, 2% ethanol solution in PBS for the compound No. 45
• Normal saline for Erlotinib® Dosing route: Oral for compound No. 45 and Erlotinib® Dose Volume: 10 mL/Kg body weight Dosing schedule: Once daily for 14 consecutive days (Q1Dx14) Dosage: • Group1. Vehicle control • Group2. Compound No. 45—150 MPK • Group3. […] Plasma collected for drug concentration estimation and whole blood was collected to isolate PBMCs to determine pStat3 inhibition by flow cytometry as PD readout. Tumors were snap frozen in liquid nitrogen and stored at −80° C. to estimate pStat3 by flow cytometry as PD readout Results: […]

A431 tumor cells = assay: A431 xenograft model; format: in vivo, athymic nude mice; settings: for TGI: Efficacy - A431 at 100 MPK
Procedure: SC injection of 5×10^6 A431 tumor cells with Matrigel® on the left flank of 24 female athymic nude mice. Randomization of mice 14 days after tumor cell injection into 3 groups of 8 mice each with a mean tumor volume of 90±1 mm3.
as §1
• Normal saline for Gefitinib® Dosing route: Oral for the compound No. 45 and Gefitinib® Dose Volume: 10 mL/Kg body weight Dosing schedule: Once daily for 14 consecutive days (Q1Dx14) PK-PD experiment in A431 model: Tumors were allowed to grow to 250 mm^3 size. Compounds were dosed once and PBMCs and tumors were collected at Tmax for pStat3 estimation. Plasma was also collected to estimate drug concentration estimation. Efficacy experiment in A431 model: Dosage: • Group1. Vehicle control • Group2. Compound No. 45—150 MPK • Group3. […] Plasma collected for drug concentration estimation and whole blood was collected to isolate PBMCs to determine pStat3 inhibition by flow cytometry as PD readout. Tumors were snap frozen in liquid nitrogen and stored at −80° C. to estimate pStat3 by flow cytometry as PD readout Determination of Plasma Drug Concentration: […]

pStat3 = assay: Quantification of pStat3 in tumors by flow cytometry; format: in vivo, mice
Procedure: Measured pStat3 using FACS caliber machine (BD). Unstained PBMCs was used for cytometry settings. […] Histograms (cell number V/s FL1-H) were plotted. Percentage of cells that are phosphorylated by IL6 stimulation (M2 population), and inhibition of phosphorylation by inhibitor (decrease in M2 population) are calculated on histogram by marking peaks, M1 and M2.
Separate the tumour & 200 mg of tumour was crashed (45 mg per ml) by using IKA 10 at Speed #4 for 10 seconds. Sieve the tumour extract through 100 u, centrifuge at 900 g for 10 min. Re-suspend cells briefly in 0.5-1 ml PBS. Add formaldehyde to a final concentration of 2-4% formaldehyde. Fix for 10 minutes at 37° C. Chill tubes on ice for 1 minute.
Permeabilize cells by adding ice-cold 100% methanol slowly to pre-chilled cells, while gently vortexing, to a final concentration of 90% methanol. Alternatively, to remove fix prior to permeabilization, pellet cells by centrifugation and re-suspend in 90% methanol. Incubate 30 minutes on ice. Proceed with staining or store cells at −20° C. in 90% methanol. Aliquot 0.5-1×10^6 cells into each assay tube (by volume). Add 2-3 ml Incubation Buffer to each tube and rinse by centrifugation. Repeat. Re-suspend cells in 100 μl Incubation Buffer per assay tube. Analyze by flow cytometry like PBMCs.

JAK1 = JAK1 (Homo sapiens (Human), UniProt P23458); assay: JAK1 kinase inhibition; format: biochemical
JAK1, sequence (P23458 whole entry): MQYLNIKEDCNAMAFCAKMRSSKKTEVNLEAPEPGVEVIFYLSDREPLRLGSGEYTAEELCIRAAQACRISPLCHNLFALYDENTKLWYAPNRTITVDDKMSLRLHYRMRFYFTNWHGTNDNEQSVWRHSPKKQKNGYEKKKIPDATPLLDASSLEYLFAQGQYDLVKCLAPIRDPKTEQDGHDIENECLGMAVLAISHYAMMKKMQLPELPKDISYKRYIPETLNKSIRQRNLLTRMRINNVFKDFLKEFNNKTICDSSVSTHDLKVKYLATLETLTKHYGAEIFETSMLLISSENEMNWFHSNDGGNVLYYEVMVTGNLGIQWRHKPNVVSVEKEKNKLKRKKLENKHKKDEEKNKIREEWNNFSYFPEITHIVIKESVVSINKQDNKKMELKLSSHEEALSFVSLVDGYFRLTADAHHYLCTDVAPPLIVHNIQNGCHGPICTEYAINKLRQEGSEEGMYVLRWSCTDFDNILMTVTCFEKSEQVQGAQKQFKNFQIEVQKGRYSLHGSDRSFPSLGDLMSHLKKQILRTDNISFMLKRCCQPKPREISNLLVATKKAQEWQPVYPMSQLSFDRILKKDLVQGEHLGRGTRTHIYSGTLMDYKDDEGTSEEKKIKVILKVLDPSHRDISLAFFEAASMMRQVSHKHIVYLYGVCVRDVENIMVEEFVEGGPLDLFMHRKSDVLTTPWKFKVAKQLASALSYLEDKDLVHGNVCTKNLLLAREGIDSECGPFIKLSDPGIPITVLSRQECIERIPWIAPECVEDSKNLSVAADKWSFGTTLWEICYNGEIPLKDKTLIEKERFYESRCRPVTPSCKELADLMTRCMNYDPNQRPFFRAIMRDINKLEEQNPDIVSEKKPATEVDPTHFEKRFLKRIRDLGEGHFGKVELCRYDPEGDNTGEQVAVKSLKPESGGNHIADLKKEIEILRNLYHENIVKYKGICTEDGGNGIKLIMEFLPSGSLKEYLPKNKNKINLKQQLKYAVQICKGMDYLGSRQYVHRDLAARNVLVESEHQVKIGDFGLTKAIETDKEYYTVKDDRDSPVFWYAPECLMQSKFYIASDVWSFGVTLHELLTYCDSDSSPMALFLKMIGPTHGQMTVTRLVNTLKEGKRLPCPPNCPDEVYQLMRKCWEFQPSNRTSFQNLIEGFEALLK

B16F10 tumor cells = assay: B16F10 metastasis model; format: in vivo, C57B16 mice; settings: for Metastasis Inhibition: B16F10 model; for % metastasis inhib.: Efficacy - B16F10 at 100 MPK
Procedure: IV injection of 0.1×10^6 B16F10 tumor cells in the tail vain of 60 male C57B16 mice. Randomization of mice one day after tumor cell injection into 4 groups of 15 mice. Out of 15, 6 mice were sacrificed on 14th day for counting metastatic foci on lungs. Rest 9 mice were dosed continuously till morbidity/mortality for recording survival.
as §1
Plasma collected for drug concentration estimation and whole blood was collected to isolate PBMCs to determine pStat3 inhibition by flow cytometry as PD readout.

c-Src = c-Src (Homo sapiens (Human), UniProt P12931); assay: TR-FRET c-Src kinase assay; format: biochemical; settings: ATP 50 μM; for inhibition at 0.1 µM: read-out: c-SRC % inhibition at 100 nM, 100 nM; for inhibition at 1 µM: read-out: c-SRC % inhibition at 1 μM
c-Src, sequence (P12931 whole entry, looked up): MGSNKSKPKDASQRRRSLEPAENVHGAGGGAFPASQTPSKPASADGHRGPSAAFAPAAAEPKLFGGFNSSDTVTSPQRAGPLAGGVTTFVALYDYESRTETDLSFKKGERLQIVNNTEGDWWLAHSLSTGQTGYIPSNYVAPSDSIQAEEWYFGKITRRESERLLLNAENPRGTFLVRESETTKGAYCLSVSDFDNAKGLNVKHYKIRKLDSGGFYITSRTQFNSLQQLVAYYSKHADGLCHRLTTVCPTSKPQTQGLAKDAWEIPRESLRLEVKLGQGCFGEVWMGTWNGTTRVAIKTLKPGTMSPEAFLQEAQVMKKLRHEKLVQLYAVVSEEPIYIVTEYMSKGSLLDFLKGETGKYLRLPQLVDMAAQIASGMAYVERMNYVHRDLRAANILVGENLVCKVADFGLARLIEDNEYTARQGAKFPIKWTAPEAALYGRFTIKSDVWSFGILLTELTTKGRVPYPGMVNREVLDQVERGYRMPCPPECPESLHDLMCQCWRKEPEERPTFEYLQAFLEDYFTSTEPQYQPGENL
Procedure: Compounds were screened in the TR-FRET assay for JAK2 and c-Src kinase inhibition. Ultra light poly GT (Perkin Elmer) was used as the substrate for JAK2 and c-Src with the ATP concentration of 10 μM and 50 μM, respectively. […] The dose-response curve fitting was done using GraphPad Prism software.

Mda-Mb-231 cells = assay: Cell viability assay (XTT assay), Mda-Mb-231; format: cell-based; settings: Homo sapiens, 72 hrs
Method in brief: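 MDA-MB-231 cells seeded and dosed next day in triplicate, incubated 72 h. Medium replaced with XTT working solution for 2-5 h, absorbance read at 465 nm, and EC50 values derived from the readings.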

SMILES: Cc1ccc(NC(=O)c2cccc(C(F)(F)F)c2)cc1N1CCc2nc(Nc3ccc(N4CCN(C)CC4)cc3)ncc2C1=O [Compound 45, N-(4-Methyl-3-{2-[4-(4-methyl-piperazin-1-yl)-phenylamino]-5-oxo-7,8-dihydro-5H-pyrido[4,3-d]pyrimidin-6-yl}-phenyl)-3-trifluoromethyl-benzamide]
- % TGI (Tumor Growth Inhibition) (A549 tumor cells; A549 Xenograft model, 10 MPK): 28.90%
- % TGI (Tumor Growth Inhibition) (A549 tumor cells; A549 Xenograft model, 30 MPK): 55.62%
- % TGI (Tumor Growth Inhibition) (A549 tumor cells; A549 Xenograft model, 100 MPK): 63.86%
- % TGI (Tumor Growth Inhibition) (A549 tumor cells; A549 Xenograft model, 150 MPK): 53.74%
- TGI (A549 tumor cells; A549 Xenograft model, 150 MPK): 54
- tumor growth inhibition (A549 tumor cells; A549 xenograft model, 100 MPK (Q1Dx14)): 64%
- TGI (A549 tumor cells; Efficacy - A549, at 100 MPK): 64% at
- compound related toxicity (A549 tumor cells; up to 150 MPK during A549 efficacy study): No major effects of compound related toxicity
- % TGI (A431 tumor cells; A431 Xenograft model, 100 MPK): 52.55%
- TGI (A431 tumor cells): 48%
- Tumors % pStat3 inhibition (pStat3; A431 Xenograft model, 100 MPK): 44.3%
- Tumors % pStat3 inhibition (pStat3; A549 Xenograft model, 10 MPK): 44.46%
- Tumors % pStat3 inhibition (pStat3; A549 Xenograft model, 30 MPK): 48.92%
- Tumors % pStat3 inhibition (pStat3; A549 Xenograft model, 100 MPK): 61.51%
- Tumors % pStat3 inhibition (pStat3; A549 Xenograft model, 150 MPK): 57.08%
- % pSTAT3 inhib. (tumour) (pStat3; Efficacy - A431 at 100 MPK): 45%
- % pSTAT3 inhib. (tumour) (pStat3; Efficacy - A549, at 100 MPK): 62% at
- IC50 (JAK1): 0.116 µM
- inhibition at 0.1 µM (JAK1; read-out: JAK1 % inhibition at 100 nM): 56%
- inhibition at 1 µM (JAK1; read-out: JAK1 % inhibition at 1 μM): 82%
- anti-tumor activity (B16F10 tumor cells; B16F10 metastasis model): good anti-tumor activity
- reduction in metastatic counts on lungs (B16F10 tumor cells; B16F10 metastasis model, 100 MPK, Q1Dx14): 75%
- Metastasis Inhibition (B16F10 tumor cells; 30 MPK): 73%
- Metastasis Inhibition (B16F10 tumor cells; 100 MPK): 75%
- % metastasis inhib. (B16F10 tumor cells): 75%
- IC50 (c-Src): 0.01 µM
- EC50 (Mda-Mb-231 cells): 1.83 µM

SMILES: Cc1ccc(NC(=O)c2cccc(C(F)(F)F)c2)cc1N1CCc2nc(Nc3ccc(C(=O)NC4CC4)nc3)ncc2C1 [Compound 117, 5-{6-[2-Methyl-5-(3-trifluoromethyl-benzoylamino)-phenyl]-5,6,7,8-tetrahydro-pyrido[4,3-d]pyrimidin-2-ylamino}-pyridine-2-carboxylic acid cyclopropylamide]
- TGI (A549 tumor cells; Efficacy - A549, at 100 MPK): 56% at
- TGI (A431 tumor cells): 54%
- % pSTAT3 inhib. (tumour) (pStat3; Efficacy - A431 at 100 MPK): 10%
- % pSTAT3 inhib. (tumour) (pStat3; Efficacy - A549, at 100 MPK): 47% at
- IC50 (JAK1): 0.024 µM
- % metastasis inhib. (B16F10 tumor cells): 26%
- inhibition at 0.1 µM (c-Src): 80%
- inhibition at 1 µM (c-Src): 96%
- EC50 (Mda-Mb-231 cells): 0.66 µM

SMILES: CNC(=O)c1ccc(Nc2ncc3c(n2)CCN(c2cc(NC(=O)c4cc(C(F)(F)F)ccn4)ccc2Cl)C3)cc1 [Compound 179, 4-Trifluoromethyl-pyridine-2-carboxylic acid {4-chloro-3-[2-(4-methylcarbamoyl-phenylamino)-7,8-dihydro-5H-pyrido[4,3-d]pyrimidin-6-yl]-phenyl}-amide]
- TGI (A549 tumor cells; Efficacy - A549, at 30 MPK): 68% at
- TGI (A431 tumor cells): 67%
- % pSTAT3 inhib. (tumour) (pStat3; Efficacy - A431 at 100 MPK): 54%
- % pSTAT3 inhib. (tumour) (pStat3; Efficacy - A549, at 30 MPK): 79% at
- IC50 (JAK1): 0.012 µM
- % metastasis inhib. (B16F10 tumor cells): 47%
- IC50 (c-Src): 0.015 µM
- inhibition at 0.1 µM (c-Src): 79%
- inhibition at 1 µM (c-Src): 93%
- EC50 (Mda-Mb-231 cells): 0.9 µM
